Results as given in patent US20200377477A1, “DEGRADERS OF EGFR AND METHODS OF USE THEREOF” (DANA-FARBER CANCER INSTITUTE, INC., priority 2018, published 2020).
Like-named read-outs stand apart in the source and are kept apart here.

How the values were obtained:
[1] = target: T1, EGFR T790M/L858R Ba/F3 cell line (Homo sapiens, UniProt P00533, T790M/L858R, cells depend on it); assay: Ba/F3 cell proliferation (MTS assay), EGFR T790M/L858R; type: cell-based, murine
T1 construct: The constructs were shuttled into the retroviral vector JP1540 using the BD Creator™ System (BD Biosciences)
Protocol: The EGFR mutant L858R, Del E746_A750, L858R/T790M, DelE746_A750/T790M, L858R/T790M/C797S and Del/T790M/C797S Ba/F3 cells were previously described (Zhou e al., Nature 462, (2009), 1070-1074). All cell lines were maintained in RPMI 1640 (Cellgro; Mediatech Inc., Hemdon, Calif.) supplemented with 10% FBS 100 units/mL penicillin, 100 units/mL streptomycin, and 2 mM glutamine. L858R cells were maintained in ACL-4 media (Invitrogen, Carlsbad, Calif.) supplemented with 5% FBS, 100 units/mL penicillin, 100 units/mL streptonycin, and 2 mM glutamine. The EGFR I941R mutation was introduced via site directed mutagenesis using the Quick Change Site-Directed Mutagenesis kit (Stratagene; La Jolla, Calif.) according to the manufacturer's instructions. All constructs were confirmed by DNA sequencing. The constructs were shuttled into the retroviral vector JP1540 using the BD Creator™ System (BD Biosciences). Ba/F3 cells were infected with retrovirus and according to standard protocols, as described previously (Zhou 2009). Stable clones were obtained by selection in puromycin (2 μg/ml).
Growth and inhibition of growth was assessed by MTS assay and was performed according to previously established methods (Zhou 2009). The MTS assay is a colorimetric method for determining the number of viable cells that is based on the bioreduction of MTS by cells to a formazan product that is soluble in cell culture medium and can be detected spectrophotometrically. […] All experimental points were set up in six wells and all experiments were repeated at least three times. […] The curves were fitted using a non-linear regression model with a sigmoidal dose response.

[2] = target: T2, recombinant EGFR T790M/L858R kinase (Homo sapiens, UniProt P00533, L858R/T790M); assay: HTRF-based EGFR biochemical assay
T2 construct: Constructs spanning residues 696-1022 of the human EGFR; GST (cleaved yes); made in house; host or cells: Sf9 insect cells
Protocol: Constructs spanning residues 696-1022 of the human EGFR (including wild type and L858R, L858R/T790M, T790M, and T790M/V948R mutant sequences) were prepared in a GST-fusion format using the pTriEX system (Novagen) for expression in Sf9 insect cells essentially as described (Yun et al., PNAS 105, 2070-2075 (2008); Yun et al., Cancer Cell 11, 217-227 (2007)). EGFR kinase proteins were purified by glutathione-affinity chromatography followed by size-exclusion chromatography after cleavage with TEV or thrombin to remove the GST fusion partner following established procedures. (Yun 2008; Yun 2007).
EGFR biochemical assays were carried out using a homogeneous time-resolved fluorescence (HTRF) assay as described previously. The reaction mixtures contained 1 μM biotin-Lck-peptide substrate, wild type or mutant EGFR enzyme in reaction buffer (50 mM HEPES pH 7. 1, 10 mM MgCl2, 0.01% BSA, 1 mM TCEP and 0.1 mM Na3VO4) at a final volume of 10 μL. Enzyme concentrations were adjusted to accommodate varying kinase activity and ATP concentrations (0.2-0.4 nM L858R/T790M; or 2-4 nM L858R, or 2-4 nM T790M, or nM WT). All reactions were carried out at room temperature in white ProxiPlate™ 384-well Plus plates (PerkinElmer) and were quenched with 5 μL of 0.2 M EDTA at 60 min. Five μL per well of the detection reagent containing 2.5 ng PT66K (Cis-bio) and 0.05 μg SAXL (Prozyme) were added, and the plates were then incubated at room temperature for 1 hour and read with an EnVision plate reader.

[3] = absence of cetuximab, read-out: Ba/F3 cellular activity (EC50) T790M/L858R
[4] = read-out: Ba/F3 cellular activity (EC50) T790M/L858R + Cetuximab, presence of 1 μg/mL cetuximab

T2 sequence (P00533 696-1022 T790M/L858R): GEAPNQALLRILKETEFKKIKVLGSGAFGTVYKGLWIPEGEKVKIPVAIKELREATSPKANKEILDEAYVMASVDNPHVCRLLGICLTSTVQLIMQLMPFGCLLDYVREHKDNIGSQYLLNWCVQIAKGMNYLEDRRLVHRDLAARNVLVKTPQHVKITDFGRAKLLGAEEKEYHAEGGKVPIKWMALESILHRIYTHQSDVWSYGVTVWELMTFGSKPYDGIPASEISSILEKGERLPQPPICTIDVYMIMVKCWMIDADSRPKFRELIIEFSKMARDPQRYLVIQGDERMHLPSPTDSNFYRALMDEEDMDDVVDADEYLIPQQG
T1 sequence (P00533 whole entry T790M/L858R): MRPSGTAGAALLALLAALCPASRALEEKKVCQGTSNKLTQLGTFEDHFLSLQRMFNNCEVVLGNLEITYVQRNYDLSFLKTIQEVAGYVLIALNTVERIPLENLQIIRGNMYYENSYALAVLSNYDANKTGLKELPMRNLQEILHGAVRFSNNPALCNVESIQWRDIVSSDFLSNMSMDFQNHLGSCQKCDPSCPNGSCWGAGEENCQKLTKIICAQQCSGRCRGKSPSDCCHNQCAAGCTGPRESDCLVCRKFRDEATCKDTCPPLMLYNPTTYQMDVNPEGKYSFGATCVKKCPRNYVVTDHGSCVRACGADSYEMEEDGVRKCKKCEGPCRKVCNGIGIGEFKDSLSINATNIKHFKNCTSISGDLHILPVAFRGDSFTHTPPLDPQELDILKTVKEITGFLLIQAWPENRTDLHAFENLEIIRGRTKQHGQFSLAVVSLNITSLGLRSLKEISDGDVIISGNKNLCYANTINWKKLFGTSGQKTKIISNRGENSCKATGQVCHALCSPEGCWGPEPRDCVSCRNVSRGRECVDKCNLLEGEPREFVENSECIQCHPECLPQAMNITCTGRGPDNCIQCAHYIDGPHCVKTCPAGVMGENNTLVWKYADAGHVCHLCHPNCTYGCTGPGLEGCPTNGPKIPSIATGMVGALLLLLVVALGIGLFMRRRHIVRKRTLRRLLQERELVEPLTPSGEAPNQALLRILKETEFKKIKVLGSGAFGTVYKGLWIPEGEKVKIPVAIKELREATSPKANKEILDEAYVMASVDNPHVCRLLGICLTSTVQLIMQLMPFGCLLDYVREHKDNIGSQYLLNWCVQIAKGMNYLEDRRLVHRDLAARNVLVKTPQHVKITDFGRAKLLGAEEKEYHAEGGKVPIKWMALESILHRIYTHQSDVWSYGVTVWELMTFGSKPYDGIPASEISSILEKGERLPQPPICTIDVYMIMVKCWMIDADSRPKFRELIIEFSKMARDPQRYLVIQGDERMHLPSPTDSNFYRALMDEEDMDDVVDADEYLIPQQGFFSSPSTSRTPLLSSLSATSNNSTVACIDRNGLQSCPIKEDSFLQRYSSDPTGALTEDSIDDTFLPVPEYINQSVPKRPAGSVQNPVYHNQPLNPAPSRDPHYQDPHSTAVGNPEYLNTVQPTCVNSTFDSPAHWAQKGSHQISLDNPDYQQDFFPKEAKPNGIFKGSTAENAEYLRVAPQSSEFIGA

## O=C(CCl)Nc1ccc2c(c1)N(Cc1ccccc1)C(=O)c1cc(-c3ccc4[nH]ccc4c3)ccc1N2 [I-2]
[1]; [3]
  EC50: < 250 nM
[1]; [4]
  EC50: < 250 nM
[2]
  IC50: ≥ 750 nM

## C=CC(=O)Nc1ccc2c(c1)N(Cc1ccccc1)C(=O)c1cc(-c3ccc(N4CCNCC4)cc3)ccc1N2 [I-3, N-(10-Benzyl-11-oxo-2-(4-(piperazin-1-yl)phenyl)-10,11-dihydro-5H-dibenzo[b,e][1,4]diazepin-8-yl)acrylamide]
[1]; [3]
  EC50: ≥ 750 nM
[1]; [4]
  EC50: ≥ 750 nM
[2]
  IC50: ≥ 750 nM

## O=C1c2cc(Br)ccc2Nc2ccc(F)cc2N1Cc1ccccc1 [I-a, 10-Benzyl-2-bromo-8-fluoro-5,10-dihydro-11H-dibenzo[b,e][1,4]diazepin-11-one]
[1]; [3]
  EC50: ≥ 750 nM
[1]; [4]
  EC50: 250 to 500 nM

## C=CC(=O)Nc1ccc2c(c1)N(Cc1ccccc1)C(=O)c1cc(-c3ccc4[nH]ccc4c3)ccc1N2 [I-1]
[1]; [3]
  EC50: ≥ 750 nM
[1]; [4]
  EC50: 500 to 750 nM
[2]
  IC50: ≥ 750 nM
